Values quoted from earlier work as cited in PubChem BioAssay AID1259409 (Chemical Carcinogenesis Research Information System (CCRIS), 2018).

Test system: rodent chemically induced tumor inhibition, incidence and multiplicity
Test: CCRIS tumor inhibitor studies

## COc1ccc2c(c1)c(CC(=O)O)c(C)n2C(=O)c1ccc(Cl)cc1
Carcinogen: METHYLAZOXYMETHANOL, 590-96-5, Dose [Inhibitor]: 7.5 MG/KG BW DAILY FOR 3 WK STARTING 27 WK AFTER THE START OF CARCINOGEN TREATMENT (STUDY DURATION: 30 WK), Route [Inhibitor]: INTRARECTAL, Species: RAT, Strain/Sex: DONRYU/MALE, Target Tissue: Type of Lesion: SMALL INTESTINE: ADENOCARCINOMA, Dose [Carcinogen]: 20 MG/KG BW 1/WK FOR 6 WK, Promoter: NONE USED
  tumour outcome (control, treated, inhibition, significance): 10/23 (43%), 4/30 (13%), 70%, p<0.05
Carcinogen: N,N-DIETHYLNITROSAMINE, 55-18-5, Dose [Inhibitor]: 0.016 MG/ML IN DRINKING WATER 3/WK FOR 4 MO STARTING 4 MO AFTER THE START OF CARCINOGEN TREATMENT AND CONTINUING FOR DUR, Route [Inhibitor]: ORAL, Species: MOUSE, Strain/Sex: C57BL/MALE, Target Tissue: Type of Lesion: ESOPHAGUS: TUMOR, Dose [Carcinogen]: 0.04 ML/1000 ML DRINKING WATER DAILY FOR 30 D THEN EVERY SECOND WK TO COMPLETE 5 MO PERIOD, Promoter: NONE USED
  tumour outcome (control, treated, inhibition, significance): 16/16 (100%), 19/19 (100%), 0%, not significant
Carcinogen: N,N-DIETHYLNITROSAMINE, 55-18-5, Dose [Inhibitor]: 0.016 MG/ML IN DRINKING WATER GIVEN TOGETHER WITH CARCINOGEN STARTING AT THE BEGINNING OF THE STUDY DAILY FOR 14 D AND 3, Route [Inhibitor]: ORAL, Species: MOUSE, Strain/Sex: C57BL/MALE, Target Tissue: Type of Lesion: ESOPHAGUS: TUMOR, Dose [Carcinogen]: 0.04 ML/1000 ML DRINKING WATER DAILY FOR 14 D THEN 3 D/WK FOR DURATION OF STUDY, Promoter: NONE USED
  tumour outcome (control, treated, inhibition, significance): 24/24 (100%), 45/45 (100%), 0%, not significant
Carcinogen: N,N-DIETHYLNITROSAMINE, 55-18-5, Dose [Inhibitor]: 0.016 MG/ML IN DRINKING WATER GIVEN TOGETHER WITH CARCINOGEN STARTING AT THE BEGINNING OF THE STUDY DAILY FOR 30 D THEN, Route [Inhibitor]: ORAL, Species: MOUSE, Strain/Sex: C57BL/MALE, Target Tissue: Type of Lesion: ESOPHAGUS: TUMOR, Dose [Carcinogen]: 0.04 ML/1000 ML DRINKING WATER GIVEN TOGETHER WITH AGENT, Promoter: NONE USED
  tumour outcome (control, treated, inhibition, significance): 8/8 (100%), 16/16 (100%), 0%, not significant
Carcinogen: N-BUTYL-N-(4-HYDROXYBUTYL)NITROSAMINE, 3817-11-6, Dose [Inhibitor]: 0, 7.5 MG/KG DIET BEGINNING 1 WK PRIOR TO CARCINOGEN TREATMENT AND CONTINUING FOR DURATION OF STUDY (STUDY DURATION: 187, Route [Inhibitor]: ORAL, Species: MOUSE, Strain/Sex: BDF/MALE, Target Tissue: Type of Lesion: URINARY BLADDER: TUMOR, Dose [Carcinogen]: 7.5 MG IN 0.1 ML OF ETHANOL:WATER (20:80) 1/WK FOR 8 WK, Promoter: NONE USED
  tumour outcome (control, treated, inhibition, significance): 24%, 5%, 79%, p<0.05
Carcinogen: N-BUTYL-N-(4-HYDROXYBUTYL)NITROSAMINE, 3817-11-6, Dose [Inhibitor]: 0, 15 MG/KG DIET BEGINNING 1 WK PRIOR TO CARCINOGEN TREATMENT AND CONTINUING FOR DURATION OF STUDY (STUDY DURATION: 187, Route [Inhibitor]: ORAL, Species: MOUSE, Strain/Sex: BDF/MALE, Target Tissue: Type of Lesion: URINARY BLADDER: TUMOR, Dose [Carcinogen]: 7.5 MG IN 0.1 ML OF ETHANOL:WATER (20:80) 1/WK FOR 8 WK, Promoter: NONE USED
  tumour outcome (control, treated, inhibition, significance): 24%, 0%, 100%, p<0.01
Carcinogen: N-BUTYL-N-(4-HYDROXYBUTYL)NITROSAMINE, 3817-11-6, Dose [Inhibitor]: 0, 20 PPM IN DRINKING WATER FOR 20 WK BEGINNING POST PROMOTER TREATMENT (STUDY DURATION: 44 WK), Route [Inhibitor]: ORAL, Species: RAT, Strain/Sex: F344/MALE, Target Tissue: Type of Lesion: URINARY BLADDER: PAPILLOMA, Dose [Carcinogen]: 0.05% IN DRINKING WATER FOR 4 WK, Promoter: BUTYLATED HYDROXYANISOLE, 25013-16-5
  tumour outcome (control, treated, inhibition, significance): 6/15 (40%), 9/15 (60%), -50%, not significant
Carcinogen: N-BUTYL-N-(4-HYDROXYBUTYL)NITROSAMINE, 3817-11-6, Dose [Inhibitor]: 0, 20 PPM IN DRINKING WATER FOR 20 WK BEGINNING POST PROMOTER TREATMENT (STUDY DURATION: 44 WK), Route [Inhibitor]: ORAL, Species: RAT, Strain/Sex: F344/MALE, Target Tissue: Type of Lesion: URINARY BLADDER: PAPILLOMA, Dose [Carcinogen]: 0.05% IN DRINKING WATER FOR 4 WK, Promoter: SODIUM L-ASCORBATE, 134-03-2
  tumour outcome (control, treated, inhibition, significance): 10/15 (67%), 10/15 (67%), 0%, not significant
Carcinogen: N-BUTYL-N-(4-HYDROXYBUTYL)NITROSAMINE, 3817-11-6, Dose [Inhibitor]: 0, 20 PPM IN DRINKING WATER FOR 20 WK BEGINNING POST PROMOTER TREATMENT (STUDY DURATION: 44 WK), Route [Inhibitor]: ORAL, Species: RAT, Strain/Sex: F344/MALE, Target Tissue: Type of Lesion: URINARY BLADDER: TRANSITIONAL CELL CARCINOMA, Dose [Carcinogen]: 0.05% IN DRINKING WATER FOR 4 WK, Promoter: BUTYLATED HYDROXYANISOLE, 25013-16-5
  tumour outcome (control, treated, inhibition, significance): 3/15 (20%), 3/15 (20%), 0%, not significant
Carcinogen: N-BUTYL-N-(4-HYDROXYBUTYL)NITROSAMINE, 3817-11-6, Dose [Inhibitor]: 0, 20 PPM IN DRINKING WATER FOR 20 WK BEGINNING POST PROMOTER TREATMENT (STUDY DURATION: 44 WK), Route [Inhibitor]: ORAL, Species: RAT, Strain/Sex: F344/MALE, Target Tissue: Type of Lesion: URINARY BLADDER: TRANSITIONAL CELL CARCINOMA, Dose [Carcinogen]: 0.05% IN DRINKING WATER FOR 4 WK, Promoter: SODIUM L-ASCORBATE, 134-03-2
  tumour outcome (control, treated, inhibition, significance): 6/15 (40%), 2/15 (13%), 67%, not significant
